# Key:
# [1] = molecular target: T1, PTPN2 (HiBIT-PTPN2 in 293T.109 cells) (Homo sapiens, UniProt P17706); assay: HiBiT Degradation 293T.109 PTPN2 (Nano-Glo HiBiT Lytic Assay); format: cell-based; conditions: 24.0 hours
# T1 construct: expressed in transfected cells; host or cells: 293T.109 (293T WT from ATCC)
# T1 sequence (P17706 1-415): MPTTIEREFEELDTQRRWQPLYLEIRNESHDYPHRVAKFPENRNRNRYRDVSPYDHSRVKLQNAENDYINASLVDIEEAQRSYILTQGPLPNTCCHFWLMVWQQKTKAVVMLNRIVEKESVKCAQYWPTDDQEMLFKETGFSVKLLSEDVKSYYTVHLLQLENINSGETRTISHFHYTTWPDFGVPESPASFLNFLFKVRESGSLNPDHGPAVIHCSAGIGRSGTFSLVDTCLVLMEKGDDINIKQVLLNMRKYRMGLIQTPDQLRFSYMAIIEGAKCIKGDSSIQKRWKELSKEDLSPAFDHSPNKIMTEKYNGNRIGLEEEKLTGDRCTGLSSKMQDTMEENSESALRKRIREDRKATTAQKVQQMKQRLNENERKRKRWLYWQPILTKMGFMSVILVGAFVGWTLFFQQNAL
# Excerpt: Dulbecco's modified Eagle medium (DMEM) without phenol red and fetal bovine serum (FBS) were purchased from Gibco (Grand Island, NY, USA). Nano-Glo® HiBIT Lytic Assay System was purchased from Promega (Madison, WI, USA). 293T.109 (HiBIT-PTPN2) cell line was generated by ectopically expressing PTPN2 with N-terminal HiBIT fusion tag in 293T WT cell line purchased from ATCC (Manassas, VA, USA). Cell culture flasks and 384-well microplates were acquired from VWR (Radnor, PA, USA).
# PTPN2 degradation was determined based on quantification of luminescent signal using Nano-Glo® HiBIT Lytic Assay kit. Test compounds were added to the 384-well plate from a top concentration of 10 μM with 11 points, half log titration in duplicates. 293T.109 cells were added into 384-well plates at a cell density of 5000 cells per well. The plates were kept at 37° C. with 5% CO2 for 24 hours. The cells treated in the absence of the test compound were the negative control and the cells without Nano-Glo® HiBIT Lytic reagent were the positive control. After 24-hour incubation, Nano-Glo® HiBiT Lytic Assay reagents were added to the cells. Luminescence was acquired on EnVision™ Multilabel Reader (PerkinElmer, Santa Clara, CA, USA).
# PTPN2 (B16F10.4 cells) = molecular target: T2, PTPN2 (B16F10.4 cells) (Mus musculus, UniProt Q06180); assay: HiBiT Degradation B16F10.4 PTPN2; format: cell-based; conditions: 24.0 hours
# T2 construct: HiBiT; host or cells: B16F10.4
# T2 sequence (Q06180 1-406): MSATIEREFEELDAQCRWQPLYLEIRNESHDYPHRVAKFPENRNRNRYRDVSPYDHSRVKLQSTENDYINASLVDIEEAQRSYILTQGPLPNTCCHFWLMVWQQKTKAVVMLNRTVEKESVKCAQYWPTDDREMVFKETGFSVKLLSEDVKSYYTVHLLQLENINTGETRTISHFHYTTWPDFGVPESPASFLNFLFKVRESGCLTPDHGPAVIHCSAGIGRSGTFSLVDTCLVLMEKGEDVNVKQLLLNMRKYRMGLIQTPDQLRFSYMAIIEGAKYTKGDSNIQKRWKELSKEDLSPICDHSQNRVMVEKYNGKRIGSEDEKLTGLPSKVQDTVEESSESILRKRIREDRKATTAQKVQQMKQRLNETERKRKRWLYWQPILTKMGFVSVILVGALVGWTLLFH
Structure (SMILES),DC50 [1] [nM],DC50 (PTPN2 (B16F10.4 cells)) [nM]
"CC(C)n1c(=O)n([C@@H]2CCC(=O)NC2=O)c2ccc(C3CCN(C(=O)Nc4cccc(CS(=O)(=O)N5CC[C@H](Nc6cccc(-c7sc(C(=O)O)c(OCC(=O)O)c7Cl)c6)CC5(C)C)c4)CC3)cc21 (single isomer, unassigned) [Example 87a]",50 to 200,50 to 200
"CC(C)n1c(=O)n(C2CCC(=O)NC2=O)c2ccc(C3CCN(C(=O)Nc4cccc(CS(=O)(=O)N5CC[C@H](Nc6cccc(-c7sc(C(=O)O)c(OCC(=O)O)c7Cl)c6)CC5(C)C)c4)CC3)cc21 (single isomer, unassigned) [Example 87b]",50 to 200,50 to 200
"CC1(C)C[C@@H](Nc2cccc(-c3sc(C(=O)O)c(OCC(=O)O)c3Cl)c2F)CCN1S(=O)(=O)Cc1ccc(F)c(NC(=O)N2CCC(c3ccc4c5c(cccc35)C(=O)N4C3CCC(=O)NC3=O)CC2)c1 (single isomer, unassigned) [Example 167]",50 to 200,< 50
"Cn1c(=O)n([C@@H]2CCC(=O)NC2=O)c2ccc([C@@H]3CCN(C(=O)Nc4cccc(CS(=O)(=O)N5CC[C@H](Nc6cccc(-c7sc(C(=O)O)c(OCC(=O)O)c7Cl)c6)CC5(C)C)c4)CC3(F)F)cc21 (single isomer, unassigned) [Example 169b]",50 to 200,50 to 200
Cn1c(=O)n(C2CCC(=O)NC2=O)c2ccc([C@@H]3CCN(C(=O)Nc4cccc(CS(=O)(=O)N5CC[C@H](Nc6cccc(-c7sc(C(=O)O)c(OCC(=O)O)c7Cl)c6)CC5(C)C)c4)C[C@@H]3F)cc21 (stereo in doubt) [Example 172],< 50,< 50
"CC1(C)C[C@@H](Nc2cccc(-c3sc(C(=O)O)c(OCC(=O)O)c3Cl)c2)CCN1S(=O)(=O)Cc1cccc(NC(=O)CCCCCn2cc(CNc3cccc4c3C(=O)N(C3CCC(=O)NC3=O)C4=O)nn2)c1 (stereo partly drawn) [Example 12, 3-(carboxymethoxy)-4-chloro-5-(3-(((4S)-1-((3-(6-(4-(((2-(2,6-dioxopiperidin-3-yl)-1,3-dioxoisoindolin-4-yl)amino)methyl)-1H-1,2,3-triazol-1-yl)hexanamido)benzyl)sulfonyl)-2,2-dimethylpiperidin-4-yl)amino)phenyl)thiophene-2-carboxylic acid]",200 to 1000,200 to 1000
"CC1(C)C[C@@H](Nc2cccc(-c3sc(C(=O)O)c(OCC(=O)O)c3Cl)c2)CCN1S(=O)(=O)Cc1cccc(NC(=O)CCn2cc(CNc3cccc4c3C(=O)N(C3CCC(=O)NC3=O)C4=O)nn2)c1 (stereo partly drawn) [Example 13, 3-(carboxymethoxy)-4-chloro-5-(3-(((4S)-1-((3-(3-(4-(((2-(2,6-dioxopiperidin-3-yl)-1,3-dioxoisoindolin-4-yl)amino)methyl)-1H-1,2,3-triazol-1-yl)propanamido)benzyl)sulfonyl)-2,2-dimethylpiperidin-4-yl)amino)phenyl)thiophene-2-carboxylic acid]",200 to 1000,200 to 1000
"CC1(C)C[C@H](Nc2cccc(-c3sc(C(=O)O)c(OCC(=O)O)c3Cl)c2)CCN1S(=O)(=O)Cc1cccc(NC(=O)CCn2cc(CNc3cccc4c3C(=O)N(C3CCC(=O)NC3=O)C4=O)nn2)c1 (stereo partly drawn) [Example 14, 3-(carboxymethoxy)-4-chloro-5-(3-(((4R)-1-((3-(3-(4-(((2-(2,6-dioxopiperidin-3-yl)-1,3-dioxoisoindolin-4-yl)amino)methyl)-1H-1,2,3-triazol-1-yl)propanamido)benzyl)sulfonyl)-2,2-dimethylpiperidin-4-yl)amino)phenyl)thiophene-2-carboxylic acid]",200 to 1000,≥ 1000
"CC1(C)C[C@@H](Nc2cccc(-c3sc(C(=O)O)c(OCC(=O)O)c3Cl)c2)CCN1S(=O)(=O)Cc1cccc(NC(=O)CCOCCn2cc(CNc3cccc4c3C(=O)N(C3CCC(=O)NC3=O)C4=O)nn2)c1 (stereo partly drawn) [Example 15, 3-(carboxymethoxy)-4-chloro-5-(3-(((4S)-1-((3-(3-(2-(4-(((2-(2,6-dioxopiperidin-3-yl)-1,3-dioxoisoindolin-4-yl)amino)methyl)-1H-1,2,3-triazol-1-yl)ethoxy)propanamido)benzyl)sulfonyl)-2,2-dimethylpiperidin-4-yl)amino)phenyl)thiophene-2-carboxylic acid]",200 to 1000,200 to 1000
O=C(O)COc1c(C(=O)O)sc(-c2cccc(NC3CCN(S(=O)(=O)Cc4cccc(NC(=O)C5CCN(C(=O)CNc6cccc7c6C(=O)N(C6CCC(=O)NC6=O)C7=O)CC5)c4)CC3)c2)c1Cl (centres unmarked) [Example 16],200 to 1000,≥ 1000
Cn1c(=O)n(C2CCC(=O)NC2=O)c2ccc(N3CCCC4(CN(C(=O)Nc5cccc(CS(=O)(=O)N6CC[C@H](Nc7cccc(-c8sc(C(=O)O)c(OCC(=O)O)c8Cl)c7)CC6(C)C)c5)C4)C3)cc21 (some centres unmarked) [Example 141],,200 to 1000
"CC1(C)C[C@@H](Nc2cccc(-c3sc(C(=O)O)c(OCC(=O)O)c3Cl)c2)CCN1S(=O)(=O)Cc1cccc(NC(=O)N2CCCN(c3ccc4c5c(cccc35)N(C3CCC(=O)NC3=O)C4=O)CC2)c1 (stereo partly drawn) [Example 164, 3-(carboxymethoxy)-4-chloro-5-(3-(((4S)-1-((3-(4-(1-(2,6-dioxopiperidin-3-yl)-2-oxo-1,2-dihydrobenzo[cd]indol-5-yl)-1,4-diazepane-1-carboxamido)benzyl)sulfonyl)-2,2-dimethylpiperidin-4-yl)amino)phenyl)thiophene-2-carboxylic acid]",200 to 1000,

# Now from value to compound:
DC50 [1] [nM],DC50 (PTPN2 (B16F10.4 cells)) [nM],Structure (SMILES)
< 50,200 to 1000,"CC1(C)C[C@@H](Nc2cccc(-c3sc(C(=O)O)c(OCC(=O)O)c3Cl)c2)CCN1S(=O)(=O)Cc1cccc(NC(=O)C2CN(C(=O)CNc3cccc4c3CN([C@@H]3CCC(=O)NC3=O)C4=O)C2)c1 (single isomer, unassigned) [Example 44a]"
< 50,200 to 1000,"CC1(C)C[C@@H](Nc2cccc(-c3sc(C(=O)O)c(OCC(=O)O)c3Cl)c2)CCN1S(=O)(=O)Cc1cccc(NC(=O)C2CN(C(=O)CNc3cccc4c3CN([C@H]3CCC(=O)NC3=O)C4=O)C2)c1 (single isomer, unassigned) [Example 44b]"
< 50,200 to 1000,"CC1(C)C[C@@H](Nc2cccc(-c3sc(C(=O)O)c(OCC(=O)O)c3Cl)c2F)CCN1S(=O)(=O)Cc1ccc(F)c(NC(=O)C2CN(C(=O)CNc3cccc4c3CN([C@@H]3CCC(=O)NC3=O)C4=O)C2)c1 (single isomer, unassigned) [Example 148a]"
< 50,200 to 1000,"CC1(C)C[C@@H](Nc2cccc(-c3sc(C(=O)O)c(OCC(=O)O)c3Cl)c2F)CCN1S(=O)(=O)Cc1ccc(F)c(NC(=O)C2CN(C(=O)CNc3cccc4c3CN([C@H]3CCC(=O)NC3=O)C4=O)C2)c1 (single isomer, unassigned) [Example 148b]"
< 50,< 50,"Cn1c(=O)n([C@H]2CCC(=O)NC2=O)c2ccc([C@@H]3CCN(C(=O)Nc4cccc(CS(=O)(=O)N5CC[C@H](Nc6cccc(-c7sc(C(=O)O)c(OCC(=O)O)c7Cl)c6)CC5(C)C)c4)CC3(F)F)cc21 (single isomer, unassigned) [Example 169a]"
< 50,< 50,"CC1(C)C[C@@H](Nc2cccc(-c3sc(C(=O)O)c(OCC(=O)O)c3Cl)c2)CCN1S(=O)(=O)Cc1cccc(NC(=O)N2CCC(c3ccc4c5c(cccc35)C(=O)N4[C@@H]3CCC(=O)NC3=O)CC2)c1 (single isomer, unassigned) [Example 187a]"
< 50,< 50,"Cn1c(=O)n([C@H]2CCC(=O)NC2=O)c2ccc(C3CCN(C(=O)Nc4cccc(CS(=O)(=O)N5CC[C@H](Nc6cccc(-c7sc(C(=O)O)c(OCC(=O)O)c7Cl)c6)CC5(C)C)c4)CC3)cc21 (single isomer, unassigned) [Example 234]"
< 50,< 50,"Cn1c(=O)n([C@@H]2CCC(=O)NC2=O)c2ccc(C3CCN(C(=O)Nc4cccc(CS(=O)(=O)N5CC[C@H](Nc6cccc(-c7sc(C(=O)O)c(OCC(=O)O)c7Cl)c6)CC5(C)C)c4)CC3)cc21 (single isomer, unassigned) [Example 235]"

# Reference: US20250302815A1, “PROTEIN TYROSINE PHOSPHATASE TARGETING LIGANDS” (CALICO LIFE SCIENCES LLC, priority 2021, published 2025)
